In US10322995B2, “Substituted cyano cycloalkyl penta-2,4-dienes, cyano cycloalkyl pent-2-en-4-ynes, cyano heterocyclyl penta-2,4-dienes and cyano heterocyclyl pent-2-en-4-ynes as active substances against abiotic plant stress” (BAYER CROPSCIENCE AKTIENGESELLSCHAFT, priority 2014, dated 2019):

Tests used:
[1] = biological target: T1, phosphatase ABI1 via the co-regulator RCAR11/PYR1 (Arabidopsis thaliana, UniProt O49686+P49597); experiment: In vitro assay: inhibition of the phosphatase ABI1 via the co-regulator RCAR11/PYR1, MUP dephosphorylation, fluorescence; format: biochemical; settings: concentration of 5 mM of the substance in a solution of DMSO and water; MUP dephosphorylation, fluorescence 460 nm
T1 sequence (O49686 1-191): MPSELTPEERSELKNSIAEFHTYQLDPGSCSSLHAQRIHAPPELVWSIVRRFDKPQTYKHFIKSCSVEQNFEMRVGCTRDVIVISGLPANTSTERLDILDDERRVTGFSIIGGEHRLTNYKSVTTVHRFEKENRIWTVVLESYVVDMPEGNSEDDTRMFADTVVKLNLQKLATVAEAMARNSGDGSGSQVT
T1 sequence (P49597 1-434): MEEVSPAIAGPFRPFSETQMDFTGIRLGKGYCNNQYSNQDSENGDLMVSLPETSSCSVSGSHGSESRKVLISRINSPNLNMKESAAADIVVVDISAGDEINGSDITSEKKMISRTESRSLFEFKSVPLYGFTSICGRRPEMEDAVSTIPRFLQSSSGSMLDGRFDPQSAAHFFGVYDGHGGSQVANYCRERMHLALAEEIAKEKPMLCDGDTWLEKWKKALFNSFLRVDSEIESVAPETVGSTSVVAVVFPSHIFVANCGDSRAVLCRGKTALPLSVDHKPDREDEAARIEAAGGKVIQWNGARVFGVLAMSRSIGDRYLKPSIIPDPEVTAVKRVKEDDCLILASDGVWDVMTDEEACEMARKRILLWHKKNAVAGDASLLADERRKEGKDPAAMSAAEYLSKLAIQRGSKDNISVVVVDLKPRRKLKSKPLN
Description: Effects of the phytohormone abscisic acid (ABA) on the behaviour of plants under abiotic stress and the mechanism of action of ABA are described in the literature (cf. Abrams et al, WO97/23441, Cutler, Park et al. Science, 2009, 324, 1068; Grill et al. Science, 2009, 324, 1064; Tanokura et al. Biophysics, 2011, 7, 123; Schroeder et al. Plant J. 2010, 61, 290). Therefore, it is possible with the aid of a suitable in vitro test system to derive a correlation between the action of ABA and the stress response of a plant under abiotic stress. Under drought stress, plants form the phytohormone abscisic acid (ABA). This binds, along with a co-regulator (Regulatory Component of ABA-Receptor=RCAR according to Grill et al. Science, 2009, 324, 1064 or PYR/PYL according to Cutler et al. Science, 2009, 324, 1068), to a phosphatase (e.g. ABI1, a type 2C protein phosphatase, also abbreviated to PP2C) and inhibits its activity. As a result, a “downstream” kinase (e.g. SnRK2) is no longer dephosphorylated. This kinase, which is thus active, via phosphorylation of transcription factors (e.g. AREB/ABF, vgl. Yoshida et al., Plant J. 2010, 61, 672), switches on a genetic protection programme to increase drought stress tolerance.
The assay described hereinafter utilizes the inhibition of the phosphatase ABI1 via the co-regulator RCAR11/PYR1 aus Arabidopsis thaliana.
For the determination of activity, the dephosphorylation of 4-methylumbelliferyl phosphate (MUP) was measured at 460 nm. The in vitro assay was conducted in Greiner 384-well PS microplates F-well, using two controls: a) dimethyl sulphoxide (DMSO) 0.5% (f.c.) and b) 5 μM (f.c.) abscisic acid (ABA). […] The substance solution thus obtained, if necessary, was stirred with esterase from porcine liver (EC 3.1.1.1) at room temperature for 3 h and centrifuged at 4000 rpm for 30 min. A total volume of 45 μl was introduced into each cavity of the microplate, having the following composition: • 1) 5 μl of substance solution, i.e. a) DMSO 5% or b) abscisic acid solution or c) the corresponding example compound of the general formula (I) dissolved in 5% DMSO. • 2) 20 μl of enzyme buffer mix, composed of a) 40% by vol. of enzyme buffer (10 ml contain equal proportions by volume of 500 mM Tris-HCl pH8, 500 mM NaCl, 3.33 mM MnCl2, 40 mM dithiothreitol (DTT)), b) 4% by vol. of ABI1 dilution (protein stock solution was diluted so as to give, after addition, a final concentration in the assay of 0.15 μg ABI1/well), c) 4% by vol. of RCAR11 dilution (enzyme stock was diluted so as to give, on addition of the dilution to the enzyme buffer mix, a final concentration in the assay of 0.30 μg enzyme/well), d) 5% by vol. of Tween20 (1%), e) 47% by vol. H2O bi-dist. • 3) 20 μl of substrate mix, composed of a) 10% by vol. of 500 mM Tris-HCl pH8, b) 10% by vol. of 500 mM NaCl, c) 10% by vol. of 3.33 mM MnCl2, d) 5% by vol. of 25 mM MUP, 5% by vol. of Tween20 (1%), 60% by vol. of H2O bi-dist.
Enzyme buffer mix and substrate mix were made up 5 minutes prior to the addition and warmed to a temperature of 35° C. On completion of pipetting of all the solutions and on completion of mixing, the plate was incubated at 35° C. for 20 minutes. Finally, a relative fluorescence measurement was made at 35° C. with a BMG Labtech “POLARstar Optima” microplate reader using a 340/10 nm excitation filter and a 460 nm emission filter. The efficacy of the compounds of the general formula (I) is reported in the table which follows using abscisic acid (No. 64) as comparative substance according to the following classification: ++++ (inhibition≥90%), +++ (90%>inhibition≥70%), ++ (70%>inhibition≥50%), +(50%>inhibition≥30%).
Effects of selected compounds of the general formula (I) in the above-described in vitro assay at a concentration of 5 mM of the substance of the general formula (I) in question in a solution of DMSO and water: […]

Brassica napus (BRSNS) = experiment: In vivo analyses Part C: drought stress, appearance vs stressed control plants in categories (BRSNS); design: key: 0: no positive effect; 10: slight positive effect; 20: clear positive effect; 30: strong positive effect; settings: appearance vs stressed control plants after recovery phase, efficacy range of 3-4 pots
Procedure: Seeds of monocotyledonous and dicotyledonous crop plants were sown in sandy loam in plastic or wood-fibre pots, covered with soil or sand and cultivated in a greenhouse under good growth conditions. The test plants were treated at the early leaf stage (BBCH10-BBCH13). To assure uniform water supply before commencement of stress, the potted plants were supplied with water by dam irrigation prior to substance application. The inventive compounds were first formulated as wettable powders (WP) or dissolved in a solvent mixture. The further dilution was effected with water supplemented with 0.2% wetting agent (e.g. agrotin). The finished spray liquor was sprayed onto the green parts of the plant at an equivalent water application rate of 600 I/ha. Substance application was followed immediately by stress treatment of the plants. For this purpose, the wood-fibre pots were transferred in plastic inserts in order to prevent them from subsequently drying out too quickly. Drought stress was induced by gradual drying out under the following conditions: “Day”: 14 hours with illumination at 26-30° C. “Night”: 10 hours without illumination at 18-20° C. The duration of the respective stress phases was guided mainly by the condition of the stressed control plants. It was ended (by re-irrigating and transfer to a greenhouse with good growth conditions) as soon as irreversible damage was observed on the stressed control plants. The end of the stress phase was followed by an about 4-7-day recovery phase, during which the plants were once again kept under good growth conditions in a greenhouse. The duration of the recovery phase was guided mainly by when the trial plants had attained a state which enabled visual scoring of potential effects, and was therefore variable. Once this juncture had been reached, the appearance of the plants treated with test substances was recorded in comparison to the stressed control plants by the following categories: [table] For each substance and dosage, 3-4 pots were treated and evaluated. BRSNS=Brassica napus

SMILES | ABI1 inhibition [1] | Effect (BRSNS) (Brassica napus (BRSNS); dosage 250 g/ha) | Effect (BRSNS) (Brassica napus (BRSNS); dosage 25 g/ha)
CCC(C=CC(O)(C(CC)CC)C1(C#N)CC1)=CC(=O)OC (racemic) [I.2-583] | ++++ (inhibition≥90%) | 10-30 | –
CCC(C=CC(O)(C(C)C)C1(C#N)CC1)=CC(=O)OC (racemic) [I.2-102] | ++++ (inhibition≥90%) | 10-20 | –
CC/C(C#CC(O)(C1CCCCC1)C1(C#N)CC1)=C/C(=O)OC (stereo not drawn) [I.1-678] | ++++ (inhibition≥90%) | 10-30 | –
COC(=O)C=C(C)C=CC(O)(C1CC1)C1(C#N)CC1 (racemic) [I.2-543] | – | – | 30
CCCOC(=O)C=C(C=CC(O)(C(C)C)C1(C#N)CC1)CC (racemic) [I.2-507] | ++++ (inhibition≥90%) | 30 | –

Continued, in another order:

ABI1 inhibition [1] | SMILES | Effect (BRSNS) (Brassica napus (BRSNS); dosage 250 g/ha) | Effect (BRSNS) (Brassica napus (BRSNS); dosage 25 g/ha)
+++ (90%>inhibition≥70%) | COC(=O)C=C(C#CC(O)(c1ccc(C)cc1)C1(C#N)CC1)C(F)(F)F (racemic) [I.1-812] | 10-20 | –
++++ (inhibition≥90%) | CC/C(C#CC(O)(C1CC1)C1(C#N)CC1)=C/C(=O)OC (stereo not drawn) [I.1-618] | – | 30
+++ (90%>inhibition≥70%) | CCCOC(=O)C=C(C#CC(O)(C(CC)CC)C1(C#N)CC1)C(F)(F)F (racemic) [I.1-887] | 10-20 | –
